Target: T1, hP2X4 (human purinergic P2X receptor subtype 4) (Homo sapiens, UniProt Q99571)
T1 sequence (Q99571 1-404 isoform Q99571-2): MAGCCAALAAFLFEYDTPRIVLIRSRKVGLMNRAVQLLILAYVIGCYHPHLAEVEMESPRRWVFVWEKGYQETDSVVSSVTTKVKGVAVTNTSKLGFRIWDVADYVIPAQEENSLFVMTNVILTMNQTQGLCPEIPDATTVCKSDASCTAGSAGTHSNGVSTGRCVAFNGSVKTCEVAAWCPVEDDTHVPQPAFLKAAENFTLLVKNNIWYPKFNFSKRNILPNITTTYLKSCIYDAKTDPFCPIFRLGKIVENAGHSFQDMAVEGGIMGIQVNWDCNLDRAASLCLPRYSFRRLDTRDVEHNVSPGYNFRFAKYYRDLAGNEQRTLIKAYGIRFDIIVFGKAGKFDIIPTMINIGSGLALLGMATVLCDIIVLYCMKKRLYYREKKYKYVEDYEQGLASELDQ
Settings: P2X4 IC50 (nM), HEK293 cells stably expressing hP2X4; agonist BZ-ATP 2.5 μM; FLIPR calcium

| SMILES | IC50 |
| --- | --- |
| COC(=O)N1CCCc2c1cc(NC(=O)Cc1ccccc1Cl)cc2S(N)(=O)=O [Compound 46, methyl 7-(2-(2-chlorophenyl)acetamido)-5-sulfamoyl-3,4-dihydroquinoline-1(2H)-carboxylate] | 200 to 5000 nM |
| NS(=O)(=O)c1cc(NC(=O)Cc2ccccc2Cl)cc2c(F)cncc12 [Compound 47, 2-(2-chlorophenyl)-N-(4-fluoro-8-sulfamoylisoquinolin-6-yl)acetamide] | 50 to 200 nM |
| NS(=O)(=O)c1cc(NC(=O)Cc2ccccc2Cl)cc2c(Cl)cncc12 [Compound 48, N-(4-chloro-8-sulfamoylisoquinolin-6-yl)-2-(2-chlorophenyl)acetamide] | 200 to 5000 nM |
| NS(=O)(=O)c1cc(NC(=O)Cc2ccccc2Cl)cc2nc(-n3cccn3)ccc12 [Compound 49, N-(2-(1H-pyrazol-1-yl)-5-sulfamoylquinolin-7-yl)-2-(2-chlorophenyl)acetamide] | 50 to 200 nM |
| NS(=O)(=O)c1cc(NC(=O)Cc2ccccc2Cl)cc2cc(-n3ccnc3)ncc12 [Compound 50, N-(3-(1H-imidazol-1-yl)-8-sulfamoylisoquinolin-6-yl)-2-(2-chlorophenyl)acetamide] | 200 to 5000 nM |
| Nc1nccc2c(S(N)(=O)=O)cc(NC(=O)Cc3ccccc3Cl)cc12 [Compound 51, N-(1-amino-5-sulfamoylisoquinolin-7-yl)-2-(2-chlorophenyl)acetamide] | 200 to 5000 nM |
| NS(=O)(=O)c1cc(NC(=O)Cc2ccccc2Cl)cc2c(Nc3ccc(F)cc3)nccc12 [Compound 52, 2-(2-chlorophenyl)-N-(1-((4-fluorophenyl)amino)-5-sulfamoylisoquinolin-7-yl)acetamide] | 200 to 5000 nM |
| COc1nccc2c(S(C)(=N)=O)cc(NC(=O)Cc3ccccc3Cl)cc12 (centres unmarked) [Compound 53, 2-(2-chlorophenyl)-N-(1-methoxy-5-(S-methylsulfonimidoyl)isoquinolin-7-yl)acetamide] | 200 to 5000 nM |
| COc1nccc2c(S(N)(=O)=O)cc(NC(=O)Cc3c(Cl)ccc(F)c3F)cc12 [Compound 54, 2-(6-chloro-2,3-difluorophenyl)-N-(1-methoxy-5-sulfamoylisoquinolin-7-yl)acetamide] | 200 to 5000 nM |
| Cc1nccc2c(S(N)(=O)=O)cc(NC(=O)Cc3ccccc3Cl)cc12 [Compound 55] | 50 to 200 nM |
| NS(=O)(=O)c1cc(NC(=O)Cc2ccccc2Cl)cc2c(CF)nccc12 [Compound 56] | 50 to 200 nM |
| NS(=O)(=O)c1cc(NC(=O)Cc2ccccc2Cl)cc2nc(Cl)ccc12 [Compound 57] | 50 to 200 nM |
| COc1ccc2c(S(N)(=O)=O)cc(NC(=O)Cc3ccccc3Cl)cc2n1 [Compound 58, 2-(2-chlorophenyl)-N-(2-methoxy-5-sulfamoylquinolin-7-yl)acetamide] | 50 to 200 nM |
| NS(=O)(=O)c1cc(NC(=O)Cc2ccccc2Cl)cc2cc(Cl)ncc12 [Compound 59, N-(3-chloro-8-sulfamoylisoquinolin-6-yl)-2-(2-chlorophenyl)acetamide] | 50 to 200 nM |
| NS(=O)(=O)c1cc(NC(=O)Cc2ccccc2Cl)cc2c(OC(F)(F)F)nccc12 [Compound 60, 2-(2-chlorophenyl)-N-(5-sulfamoyl-1-(trifluoromethoxy)isoquinolin-7-yl)acetamide] | 50 to 200 nM |
| NS(=O)(=O)c1cc(NC(=O)Cc2ccccc2Cl)cc2c(OCF)nccc12 [Compound 61, 2-(2-chlorophenyl)-N-(1-(fluoromethoxy)-5-sulfamoylisoquinolin-7-yl)acetamide] | 50 to 200 nM |

| SMILES | IC50 |
| --- | --- |
| COc1nccc2c(S(N)(=O)=O)cc(NC(=O)Cc3c(O)cccc3Cl)cc12 [Compound 62, 2-(2-chloro-6-hydroxyphenyl)-N-(1-methoxy-5-sulfamoylisoquinolin-7-yl)acetamide] | 200 to 5000 nM |
| COc1nccc2c(S(N)(=O)=O)cc(NC(=O)Cc3c(Cl)ccc(F)c3O)cc12 [Compound 63, 2-(6-chloro-3-fluoro-2-hydroxyphenyl)-N-(1-methoxy-5-sulfamoylisoquinolin-7-yl)acetamide] | 200 to 5000 nM |
| COc1nccc2c(S(N)(=O)=O)cc(NC(=O)Cc3ccccc3C#N)cc12 [Compound 64, 2-(2-cyanophenyl)-N-(1-methoxy-5-sulfamoylisoquinolin-7-yl)acetamide] | 200 to 5000 nM |
| COc1ccc2c(S(N)(=O)=O)cc(NC(=O)Cc3ccccc3Cl)cc2n1 [Compound 65, 2-(2-chlorophenyl)-N-(2-methoxy-5-sulfamoylquinolin-7-yl)acetamide] | 10 to 50 nM |
| NS(=O)(=O)c1cc(NC(=O)Cc2ccccc2Cl)cc2nc(OCCO)ccc12 [Compound 66, 2-(2-chlorophenyl)-N-(2-(2-hydroxyethoxy)-5-sulfamoylquinolin-7-yl)acetamide] | 50 to 200 nM |
| NS(=O)(=O)c1cc(NC(=O)Cc2ccccc2Cl)cc2nc(N3CCCCC3)ccc12 [Compound 67, 2-(2-chlorophenyl)-N-(2-(piperidin-1-yl)-5-sulfamoylquinolin-7-yl)acetamide] | 200 to 5000 nM |
| NS(=O)(=O)c1cc(NC(=O)Cc2ccccc2Cl)cc2nc(N3CCOCC3)ccc12 [Compound 68, 2-(2-chlorophenyl)-N-(2-morpholino-5-sulfamoylquinolin-7-yl)acetamide] | 50 to 200 nM |
| CN1CCN(c2ccc3c(S(N)(=O)=O)cc(NC(=O)Cc4ccccc4Cl)cc3n2)CC1 [Compound 69, 2-(2-chlorophenyl)-N-(2-(4-methylpiperazin-1-yl)-5-sulfamoylquinolin-7-yl)acetamide] | 200 to 5000 nM |
| CN1CCN(c2ccc3c(S(N)(=O)=O)cc(NC(=O)Cc4ccccc4Cl)cc3n2)CC1=O [Compound 70, 2-(2-chlorophenyl)-N-(2-(4-methyl-3-carbonylpiperazin-1-yl)-5-sulfamoylquinolin-7-yl)acetamide] | 50 to 200 nM |
| COc1ccc(Oc2ccc3c(S(N)(=O)=O)cc(NC(=O)Cc4ccccc4Cl)cc3n2)cc1 [Compound 72, 2-(2-chlorophenyl)-N-(2-(4-methoxyphenoxy)-5-sulfamoylquinolin-7-yl)acetamide] | 50 to 200 nM |
| CC(C)Nc1ccc2c(S(N)(=O)=O)cc(NC(=O)Cc3ccccc3Cl)cc2n1 [Compound 73, 2-(2-chlorophenyl)-N-(2-(isopropylamino)-5-sulfamoylquinolin-7-yl)acetamide] | 200 to 5000 nM |
| COCCOc1ccc2c(S(N)(=O)=O)cc(NC(=O)Cc3ccccc3Cl)cc2n1 [Compound 74, 2-(2-chlorophenyl)-N-(2-(2-methoxyethoxy)-5-sulfamoylquinolin-7-yl)acetamide] | 50 to 200 nM |
| COc1cc2c(S(N)(=O)=O)cc(NC(=O)Cc3ccccc3Cl)cc2cn1 [Compound 75, 2-(2-chlorophenyl)-N-(3-methoxy-5-sulfamoylisoquinolin-7-yl)acetamide] | 50 to 200 nM |
| NS(=O)(=O)c1cc(NC(=O)Cc2ccccc2Cl)cc2cnc(OCCO)cc12 [Compound 76, 2-(2-chlorophenyl)-N-(3-(2-hydroxyethoxy)-5-sulfamoylisoquinolin-7-yl)acetamide] | 50 to 200 nM |
| NS(=O)(=O)c1cc(NC(=O)Cc2ccccc2Cl)cc2cnc(N3CCCCC3)cc12 [Compound 77, 2-(2-chlorophenyl)-N-(3-(piperidin-1-yl)-5-sulfamoylisoquinolin-7-yl)acetamide] | 50 to 200 nM |
| NS(=O)(=O)c1cc(NC(=O)Cc2ccccc2Cl)cc2cnc(N3CCOCC3)cc12 [Compound 78, 2-(2-chlorophenyl)-N-(3-morpholino-5-sulfamoylisoquinolin-7-yl)acetamide] | 50 to 200 nM |

— patent publication US12692235B2, “Fused ring compound and application thereof” (WUHAN LL SCIENCE AND TECHNOLOGY DEVELOPMENT CO., LTD., priority 2019, dated 2026)
